Columns and labels:
Plasmopara viticola = test: Test Example G: Downy mildew on vine; conditions: Downy mildew on vine; 250 ppm spray, 7 to 10 days after inoculation
Phytophthora infestans = test: whole plant or invertebrate; format: in vivo; conditions: Late blight on tomato; control value class
[1] = test system: Blumeria graminis f. sp. hordei; test: Test Example D: Powdery mildew on barley; conditions: Powdery mildew on barley; control value class
Alternaia brassicicola = test: Test Example C: Alternaria sooty spot on cabbage; format: in vivo; conditions: Alternaria sooty spot on cabbage; control value class
Excerpt: Seeds of a test plant (cabbage variety: Shikidori) were planted and cultivated until the cotyledons extended.
<Control Value> Control value=100{1−(n/3)}

[2] = test system: Colletotrichum orbiculare; test: Test Example H: Anthracnose on cucumber; conditions: Anthracnose on cucumber; 250 ppm spray, 6 to 10 days after inoculation
Puccinia recondita = test: Test Example E: Brown rust on wheat; format: in vivo; conditions: Brown rust on wheat; control value class
Botrytis cinerea = test: Test Example B: Gray mold on tomato; conditions: Gray mold on tomato; control value class
Magnaporthe grisea = test: whole plant or invertebrate; format: in vivo; conditions: Blast on rice; control value class

SMILES	Test G control value (Plasmopara viticola)	Test F control value (Phytophthora infestans)	Test D control value [1]	Test C control value (Alternaia brassicicola)	Test H control value [2]	Test E control value (Puccinia recondita)	Test B control value (Botrytis cinerea)	Test A control value (Magnaporthe grisea)
CCCCCCC1=C(c2ccc(F)cc2Cl)N(CC)C(=O)CC1 [compound 282]	L (50% or less control value)	L (50% or less control value)	H (more than 50% control value)	L (50% or less control value)	L (50% or less control value)	L (50% or less control value)	L (50% or less control value)	L (50% or less control value)
C#CC(O)c1cc(Cl)c(=O)n(CC)c1-c1c(F)cc(F)cc1F (stereo not shown) [compound 283]	L (50% or less control value)	L (50% or less control value)	L (50% or less control value)	H (more than 50% control value)	H (more than 50% control value)	H (more than 50% control value)	H (more than 50% control value)	L (50% or less control value)
C#CC(=O)c1cc(Cl)c(=O)n(CC)c1-c1c(F)cc(F)cc1F [compound 284]	H (more than 50% control value)	H (more than 50% control value)	H (more than 50% control value)	H (more than 50% control value)	H (more than 50% control value)	H (more than 50% control value)	H (more than 50% control value)	L (50% or less control value)
C#CC(OC)c1cc(Cl)c(=O)n(CC)c1-c1c(F)cc(F)cc1F (stereo not shown) [compound 285]	L (50% or less control value)	L (50% or less control value)	H (more than 50% control value)	H (more than 50% control value)	H (more than 50% control value)	H (more than 50% control value)	H (more than 50% control value)	H (more than 50% control value)
C#CC(F)c1cc(Cl)c(=O)n(CC)c1-c1c(F)cc(F)cc1F (stereo not shown) [compound 286]	L (50% or less control value)	L (50% or less control value)	L (50% or less control value)	H (more than 50% control value)	H (more than 50% control value)	H (more than 50% control value)	H (more than 50% control value)	L (50% or less control value)
CCn1c(-c2ccc(OC)cc2)c(C=O)cc(Cl)c1=O [compound 287]	L (50% or less control value)	L (50% or less control value)	L (50% or less control value)	H (more than 50% control value)	L (50% or less control value)	L (50% or less control value)	L (50% or less control value)	L (50% or less control value)
CCn1c(-c2ccc(C#N)cc2)c(C=O)cc(Cl)c1=O [compound 288]	L (50% or less control value)	L (50% or less control value)	L (50% or less control value)	H (more than 50% control value)	L (50% or less control value)	L (50% or less control value)	L (50% or less control value)	L (50% or less control value)
CCn1c(-c2ccc(F)cc2)c(C=O)cc(Cl)c1=O [compound 290]	L (50% or less control value)	H (more than 50% control value)	L (50% or less control value)	H (more than 50% control value)	L (50% or less control value)	L (50% or less control value)	L (50% or less control value)	L (50% or less control value)
CCCCCCc1ccc(=O)n(CC)c1-c1ccc(F)cc1Cl [compound 291]	L (50% or less control value)	L (50% or less control value)	H (more than 50% control value)	L (50% or less control value)	H (more than 50% control value)	H (more than 50% control value)	L (50% or less control value)	L (50% or less control value)
CCCCCCc1cc(Cl)c(=O)n(CC)c1-c1ccc(F)cc1Cl [compound 292]	L (50% or less control value)	L (50% or less control value)	H (more than 50% control value)	H (more than 50% control value)	L (50% or less control value)	L (50% or less control value)	H (more than 50% control value)	L (50% or less control value)
CCCCCCc1cc(Br)c(=O)n(CC)c1-c1ccc(F)cc1Cl [compound 293]	L (50% or less control value)	L (50% or less control value)	H (more than 50% control value)	H (more than 50% control value)	L (50% or less control value)	L (50% or less control value)	L (50% or less control value)	L (50% or less control value)
CCn1c(-c2ccc(F)cc2Cl)c(C=O)cc(Cl)c1=O [compound 294]	H (more than 50% control value)	L (50% or less control value)	L (50% or less control value)	H (more than 50% control value)	L (50% or less control value)	H (more than 50% control value)	H (more than 50% control value)	L (50% or less control value)
C=Cc1cc(Cl)c(=O)n(CC)c1-c1ccc(F)cc1Cl [compound 295]	L (50% or less control value)	H (more than 50% control value)	H (more than 50% control value)	H (more than 50% control value)	L (50% or less control value)	H (more than 50% control value)	H (more than 50% control value)	L (50% or less control value)
CC(C)CC1=C(c2c(F)cc(F)cc2F)N(CC(F)F)C(=O)CC1 [compound 296]	L (50% or less control value)	L (50% or less control value)	L (50% or less control value)	H (more than 50% control value)	L (50% or less control value)	H (more than 50% control value)	L (50% or less control value)	L (50% or less control value)
CC(C)Cc1ccc(=O)n(CC(F)F)c1-c1c(F)cc(F)cc1F [compound 297]	H (more than 50% control value)	L (50% or less control value)	H (more than 50% control value)	H (more than 50% control value)	L (50% or less control value)	H (more than 50% control value)	H (more than 50% control value)	L (50% or less control value)
CCn1c(-c2ccc(F)cc2Cl)c(CC=O)cc(Cl)c1=O [compound 298]	L (50% or less control value)	L (50% or less control value)	L (50% or less control value)	H (more than 50% control value)	H (more than 50% control value)	L (50% or less control value)	L (50% or less control value)	L (50% or less control value)
CC=Cc1cc(Cl)c(=O)n(CC)c1-c1ccc(F)cc1Cl [compound 299]	H (more than 50% control value)	L (50% or less control value)	H (more than 50% control value)	H (more than 50% control value)	H (more than 50% control value)	H (more than 50% control value)	H (more than 50% control value)	L (50% or less control value)
